Reference: patent US4585741A, “Method of assay for vitamin D metabolites” (priority 1983, dated 1986)

Tests used:
[1] = system: monoclonal antibody B2B4, raised in mice against bovine serum albumin-derivatized calcitroic acid; conditions: for concentration displacing half of the reversibly bound 3H-1,25-(OH)2 D3: monoclonal antibody b2b4, 18 h
Procedure: (§1) Monoclonal antibodies binding calcitroic acid were detected in culture supernatants by a radioimmunoassay in which supernatants were exposed to microtiter plates coated with a calcitroic acid-egg albumin conjugate.
Radioligand was added after 1 hr pre-incubation in displacement assays; otherwise it was added immediately. […] Alternatively, 20 λ of a partially purified preparation of carrier mouse IgG was added to the assay mixture. Then 40 λ of purified preparation of rabbit antimouse IgG was added and the mixture incubated for 4 hours at 4° C. […] After centrifugation at 1000×g for 20 minutes, the supernatants were aspirated, the pellets suspended in Budget Solve (Research Products International, Mount Prospect, Ill.) and their radioactivity determined in a Beckman 7000 Scintillation Counter (Beckman Instruments Company, Palo Alto, Calif.).
For sucrose density gradient analysis, 350 λ of assay mixture or supernatant after immunoprecipitation was layered on a linear 5-20% sucrose gradient and centrifuged at 100,000×g for 17 hours. Molecular markers, human gamma globulin (16 mg/ml assay buffer) (Calbiochem-Behring, La Jolla, Calif.) and BSA (12 mg/ml assay buffer) were centrifuged identically. Fractions were collected through a bottom puncture apparatus and their radioactivity assayed.

[2] = system: monoclonal antibody B3A1, raised in mice against bovine serum albumin-derivatized calcitroic acid
Procedure: Bound tracer is separated from free by second antibody precipitation.
as §1
Radioligand was added after 1 hr pre-incubation in displacement assays; otherwise it was added immediately. After incubation for 18 hours, 10λ of rabbit anti-mouse Fab' (unrestricted gift of Dr. Judith Kapp-Pierce, Department of Pathology, Jewish Hospital of St. Louis and Washington University School of Medicine) was added with carrier mouse IgG and tubes were incubated for another 45 minutes at 4°. Alternatively, 20 λ of a partially purified preparation of carrier mouse IgG was added to the assay mixture. Then 40 λ of purified preparation of rabbit antimouse IgG was added and the mixture incubated for 4 hours at 4° C. […] After centrifugation at 1000×g for 20 minutes, the supernatants were aspirated, the pellets suspended in Budget Solve (Research Products International, Mount Prospect, Ill.) and their radioactivity determined in a Beckman 7000 Scintillation Counter (Beckman Instruments Company, Palo Alto, Calif.).

Compound	displacement of radioligand from B2B4 (sucrose gradient) ([1]; 1 ng/ml of 1,25-(OH)2 D3 added prior to centrifugation, data not shown)	KD of calcitriol less than the KD of this analog by [2]	recognition by the antibody ([2]; at concentrations as great as 100 ng/ml)	concentration displacing half of the reversibly bound 3H-1,25-(OH)2 D3 [1]
C=C1/C(=C\C=C2/CCC[C@]3(C)[C@@H]([C@H](C)CCCC(C)(C)O)CC[C@@H]23)C[C@@H](O)C[C@@H]1O [1,25-(OH)2 D3, 1,25-dihydroxycholecalciferol]	almost completely displaced			
C=C1CC[C@H](O)C/C1=C/C=C1\CCC[C@]2(C)[C@@H]([C@H](C)CCC(O)C(C)(C)O)CC[C@@H]12 (stereo partly drawn) [24,25-(OH)2 D3, 24,25-dihydroxycholecalciferol]		about 41/2	does not recognize	48 pg/mL
C=C1CC[C@H](O)C/C1=C/C=C1\CCC[C@]2(C)[C@@H]([C@H](C)CCCC(C)(C)O)CC[C@@H]12 [25-OHD3, 25-hydroxycholecalciferol]		more than 6 orders of magnitude		68 pg/mL
